Experimental data published in PMC3100853 (2010).

What was measured:
[1] = system: FB1 16 (DNA, aptamer) ATACCAGCTTATTCAATTCATCCAGTAACAAACACATAAGTAACGGCGATATGTCAAAGCGGTATCGGCTACAGATGAGATAGTAAGTGCAATCT; assay: magnetic bead binding, percent DNA eluted (fluorescence); details: 100 mM NaCl, 5 mM KCl, 2 mM MgCl2, 1 mM CaCl2; 20 mM Tris pH 7.6, room temperature; immobilised compound; 9-15 pmol DNA, 2 × 10^8 beads
[2] = system: FB1 23 (DNA, aptamer) ATACCAGCTTATTCAATTGCGGATGCGTAAATGACGATAAACATAGATGGGGTATATCGCGATGCGACAGGGTGTAGATAGTAAGTGCAATCT; assay: as above; details: 100 mM NaCl, 5 mM KCl, 2 mM MgCl2, 1 mM CaCl2; 20 mM Tris pH 7.6, room temperature; immobilised compound; 9-15 pmol DNA, 2 × 10^8 beads
[3] = system: FB1 14 (DNA, aptamer) ATACCAGCTTATTCAATTCTATACGGAGTGGATATCGATCTGTAACGTGAGTGAGATAATGTGATGCATAGTCGTGGAGATAGTAAGTGCAATCT; assay: as above; details: 100 mM NaCl, 5 mM KCl, 2 mM MgCl2, 1 mM CaCl2; 20 mM Tris pH 7.6, room temperature; immobilised compound; 9-15 pmol DNA, 2 × 10^8 beads
[4] = system: FB1 31 (DNA, aptamer) ATACCAGCTTATTCAATTCGGGGACGTGTATACCAGCTTATTCAATTCACAGTTATGTCCTATACCAGCTTATTCAATTAGATAGTAAGTGCAATCT; assay: as above; details: 100 mM NaCl, 5 mM KCl, 2 mM MgCl2, 1 mM CaCl2; 20 mM Tris pH 7.6, room temperature; immobilised compound; 9-15 pmol DNA, 2 × 10^8 beads
[5] = system: FB1 39 (DNA, aptamer) ATACCAGCTTATTCAATTAATCGCATTACCTTATACCAGCTTATTCAATTACGTCTGCACATACCAGCTTATTCAATTAGATAGTAAGTGCAATCT; assay: magnetic bead binding, fluorescence of eluted DNA; details: 100 mM NaCl, 5 mM KCl, 2 mM MgCl2, 1 mM CaCl2; 20 mM Tris pH 7.6, room temperature; immobilised compound; aptamer 1 nM to 1 μM
[6] = system: FB1 32 (DNA, aptamer) ATACCAGCTTATTCAATTAATGTACGATGTGTGGGCAACATGAGTATGTCGTGTGATATCTAGATGAGGTAGCGGTGGAGATAGTAAGTGCAATCT; assay: magnetic bead binding, percent DNA eluted (fluorescence); details: 100 mM NaCl, 5 mM KCl, 2 mM MgCl2, 1 mM CaCl2; 20 mM Tris pH 7.6, room temperature; immobilised compound; 9-15 pmol DNA, 2 × 10^8 beads

CCCC[C@@H](C)[C@@H](OC(=O)C[C@@H](CC(=O)O)C(=O)O)[C@H](C[C@@H](C)C[C@H](O)CCCC[C@@H](O)C[C@H](O)[C@H](C)N)OC(=O)C[C@@H](CC(=O)O)C(=O)O
100 ± 30 nM: KD [5]
yes: binding [1] | binding [2] | binding [3] | binding [4] | binding [6]
